Reference: publication PMC6891263, “Alkaloids with Nitric Oxide Inhibitory Activities from the Roots of Isatis tinctoria” (Molecules, 2019)

What was measured:
[1] = system: nitric oxide (NO) production, LPS-stimulated RAW264.7 macrophages; experiment: Inhibitory assay of NO production (Griess reagent) in LPS-stimulated RAW264.7 macrophages; assay type: cell-based; details: LPS 100 ng/mL for 24 h, 30 min pretreatment, mean ± SD (n = 3)
Protocol: NO is a messenger molecule that is widespread in cells and can affect a variety of physiological and pathological processes. The production of NO causes tissue damage and can trigger a variety of inflammatory diseases. LPS induces the release of NO from RAW264.7 cells by detecting the release of NO widely used to investigate the anti-inflammatory effects of the compounds [2, 10, 40]. […]
Inhibitory Assay of NO Production […]
(§1) Compounds 1-23 were dissolved in dimethyl sulfoxide (DMSO) and diluted with complete medium to 6 degrees of concentration […]
were maintained in Dulbecco’s modified Eagle’s medium (high-glucose condition) supplemented with 10% fetal calf serum, 100 U/mL penicillin, and 100 μg/mL streptomycin at 37 °C in 5% CO 2. RAW 264.7 cells were pretreated with each tested compound for 30 min, and then stimulated with lipopolysaccharide (LPS) (100 ng/mL) for 24 h. Aminoguanidine hydrochloride (100 μM) was used as a positive control. The NO production was measured using the Griess reagent. Briefly, the cell culture supernatant was reacted with equal volumes of Griess reagent in a 96-well plate for 10 min, and then the absorbance at 540 nm was measured by a plate reader. All experiments were performed in triplicate. All tested compounds were prepared as stock solutions with a concentration of 10 mM in DMSO. […]

RAW264.7 cells = experiment: Cytotoxicity by Cell Counting Kit-8 (CCK-8); details: CCK-8, tested at 25, 50 and 100 μM
Protocol: Inhibitory Assay of NO Production
Cytotoxicity was examined using the Cell Counting Kit-8 (CCK-8). RAW264.7 cells were taken from logarithmic growth stage and the cell density reached above 80%. And then, the cells were inoculated on 96-well cell culture plates at […], with 3 ×10^4 cells per well, cultured overnight at 37 °C with 5% CO 2. After 24h, the culture medium in the 96-well plate was discarded, the solution was changed and different concentrations (25 μM, 50 μM and 100 μM) of drugs were added. The absorbance at 450 nm was measured using a microplate reader (Thermo Fisher Scientific). Viability was defined as the ratio (expressed as a percentage) of absorbance values of treated cells to untreated cells.
as §1
were maintained in Dulbecco’s modified Eagle’s medium (high-glucose condition) supplemented with 10% fetal calf serum, 100 U/mL penicillin, and 100 μg/mL streptomycin at 37 °C in 5% CO 2. […]

[2] = Mus musculus, RAW264.7, RAW 264.7 cell line

Compound	IC50 [1, 2] [µM]	IC50 ([1]; RAW 264.7 cell line) [µM]	Cytotoxicity (RAW264.7 cells) [µM]
2-(1H-indol-2-yl)-4(3H)-quinolinone [Compound 8]	–	> 100	–
Cl.N=C(N)NN [AG, aminoguanidine hydrochloride, reference compound]	–	22.7 ± 0.4	>100
C=CCCc1nc2ccccc2c(=O)[nH]1 [Compound 7, 2-(but-3-en-1-yl)-4(3H)-quinazolinone]	> 100	–	>100
O=C(O)CCn1c(=O)[nH]c2ccccc2c1=O [Compound 10, 3-(2,4-dioxo-1,2-dihydroquinazolin-3(4H)-yl)propanoic acid]	> 100	–	>100
O=c1[nH]c2ccccc2c(=O)n1CCCCO [Compound 11, indiforine C]	> 100	–	>100
O=C(O)CCCn1c(=O)[nH]c2ccccc2c1=O [Compound 12, 4-(2,4-dioxo-1,2-dihydroquinazolin-3(4H)-yl)butanoic acid]	> 100	–	>100
COC(=O)CCCn1c(=O)[nH]c2ccccc2c1=O [Compound 13, methyl 4-(2,4-dioxo-1,2-dihydroquinazolin-3(4H)-yl)butanoate]	> 100	–	>100
O=c1c2ccccc2ncn1-c1ccccc1O [Compound 14, 3-(2-hydroxyphenyl)-4(3H)-quinazolinone]	> 100	–	>100
Cc1nc(O)nc2ccccc12 [Compound 16, 4-methyl-1,2-dihydro-2-oxoquinazoline]	> 100	–	>100
Cc1nc2ccccc2c(=O)[nH]1 [Compound 17, 2-methyl-4(3H)-quinazolinone]	–	–	>100
Cc1c(O)c2ccccc2[nH]c1=O [Compound 18, 4-hydroxy-3-methyl-2(1H)-quinolinone]	> 100	–	>100
Nc1cc(C(=O)O)c2ccccc2n1 [Compound 19, 2-amino-4-quinolinecarboxylic acid]	> 100	–	>100
Oc1ccnc2ccccc12 [Compound 20, 4(1H)-quinolinone]	–	–	>100
O=C(O)c1cnc2ccccc2c1O [Compound 21, 4(1H)-quinolone-3-carboxylic acid]	> 100	–	>100
NC(=O)C(c1[nH]c2ccccc2c1OC1OC(CO)C(O)C(O)C1O)c1c[nH]c2ccccc12 (centres unmarked) [Compound 23, Isatindigoside D]	> 100	–	>100

The next lines start with results.

IC50 [1, 2] [µM]	Compound	IC50 ([1]; RAW 264.7 cell line) [µM]	Cytotoxicity (RAW264.7 cells) [µM]
> 100	O=c1cc(-c2ccc(O)cc2)c2cc(O)ccc2[nH]1 [Compound 1, Isatisindigoticanine E]	–	>100
> 100	COc1cccc2[nH]c(=O)cc(-c3cc4ccccc4[nH]3)c12 [Compound 2, Isatisindigoticanine F]	–	>100
> 100	O=c1c2ccccc2nc2n1CCC(c1c[nH]c3ccccc13)=C2 [Compound 3, Isatisindigoticanine G]	–	>100
> 100	O=c1cc(-c2ccc(O)cc2)c2ccccc2[nH]1 [Compound 4, 4-p-hydroxyphenyl-2(1H)-quinolinone]	–	>100
> 100	COc1ccc2nc(-c3cc4ccccc4[nH]3)[nH]c(=O)c2c1 [Compound 5, 2-(1H-indol-2-yl)-6-methoxy-4(3H)-quinazolinone]	–	>100
> 100	O=c1[nH]c(-c2ccccc2O)nc2ccccc12 [Compound 6, 2-(2-hydroxyphenyl)-4(3H)-quinazolinone]	–	>100
5 ± 1.3	O=C(O)c1ccccc1-n1cnc2ccccc2c1=O [Compound 15, 3-(2-carboxyphenyl)-4(3H)-quinazolinone]	–	>100
